Assay results reported in PubChem BioAssay (NCI).
“And” between values parts separate entries of the source, which are not always exact repeats. Equal entries are not always repeated.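 Exposure lasted 48 hours, with cells grown in 96-well plates and compounds tested at five concentrations. Abbreviation: GI50, concentration required for 50% inhibition of growth. TGI: concentration producing complete growth inhibition.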

Key:
Experiment in all cases: inhibition of tumour cell growth, NCI panel, 48 h
[1] = tested on: A498 renal
[2] = tested on: OVCAR-4 ovarian
[3] = tested on: A549 NSCLC
[4] = tested on: UO-31 renal
[5] = tested on: LOX IMVI melanoma
[6] = tested on: SK-MEL-28 melanoma
[7] = tested on: SNB-19 CNS
[8] = tested on: UACC-62 melanoma
[9] = tested on: U251 CNS
[10] = tested on: NCI-H226 lung

`COc1c(/C=C/C=O)cc2c(c1OC)OCO2` showed a TGI [1] of 3.15 µM, a TGI [2] of 85.6 µM and a TGI [3] of over 100 µM. For the same compound, the TGI [4] was over 100 µM, the TGI [5] was 76 µM and the TGI [6] was over 100 µM. The TGI [7] was 44.8 µM, the TGI [8] was 57 µM and the TGI [9] was 84.1 µM. For the same compound, the TGI [10] was 70 µM.

`N#CC(C#N)=C1CCOc2ccc(F)cc21` showed a GI50 [1] of 23 µM, a TGI [1] of 49.9 µM and a GI50 [2] of 14.6 µM. It also gave a TGI [2] of 27.8 µM, a GI50 [3] of 26 µM and a TGI [3] of over 100 µM. For the same compound, the GI50 [4] was 56.3 µM, the TGI [4] was over 100 µM and the GI50 [5] was 11.7 µM. For the same compound, the TGI [5] was 23.9 µM, the GI50 [6] was over 100 µM and the TGI [6] was over 100 µM. It also gave a GI50 [7] of 27.3 µM, a TGI [7] of 96.1 µM and a GI50 [8] of 11.3 µM. For the same compound, the TGI [8] was 28.9 µM, the GI50 [9] was 11.2 µM and the TGI [9] was 23.2 µM. The GI50 [10] was 18 µM and the TGI [10] was 53.7 µM.

In the case of `COc1cc(/C=C2\CCC/C(=C\c3ccc(O)c(OC)c3)C2=O)ccc1O`, the GI50 [1] is reported as 1.81 µM, the TGI [1] is reported as 13.5 µM and 5.34 µM and the GI50 [2] is reported as 2.54 µM. For the same compound, the TGI [2] was 43.5 µM and 10.6 µM, the GI50 [3] was 1.96 µM and the TGI [3] was 10.8 µM and 5.04 µM. For the same compound, the GI50 [4] was 1.17 µM, the TGI [4] was 4.82 µM and 2.83 µM and the GI50 [5] was 1.46 µM. The TGI [5] was 3.49 µM and 2.83 µM, the GI50 [6] was 1.68 µM and the TGI [6] was 16.4 µM and 4.05 µM. For the same compound, the GI50 [7] was 2.46 µM, the TGI [7] was 22.1 µM and 10.2 µM and the GI50 [8] was 1.6 µM. For the same compound, the TGI [8] was 5.32 µM and 4.06 µM, the GI50 [9] was 1.62 µM and the TGI [9] was 8.89 µM and 4.21 µM. For the same compound, the TGI [10] was 16.8 µM.

`N#CCC(=O)N/N=C1/C(=O)N(c2cc(Cl)ccc2Cl)C(=O)C(=O)C1c1nc2ccccc2s1` (centres undefined) showed a TGI [1] of over 100 µM, a TGI [2] of over 100 µM and a TGI [3] of over 100 µM. It also gave a TGI [4] of over 100 µM, a TGI [5] of over 100 µM and a TGI [6] of over 100 µM. It also gave a TGI [7] of over 100 µM, a TGI [8] of 93.2 µM and a TGI [9] of over 100 µM. The TGI [10] was over 100 µM.

Compound `COc1ccc(C2CC(c3ccc(Nc4ccnc5cc(Cl)ccc45)cc3)=NN2C=O)cc1` (centres undefined) has a GI50 [1] of over 100 µM, a TGI [1] of over 100 µM and a GI50 [2] of 13.4 µM. For the same compound, the TGI [2] was over 100 µM, the GI50 [3] was 50.3 µM and the TGI [3] was over 100 µM. It also gave a GI50 [4] of 19.7 µM, a TGI [4] of over 100 µM and a GI50 [5] of 2.32 µM. For the same compound, the TGI [5] was 15.6 µM, the GI50 [6] was 20.9 µM and the TGI [6] was 90.9 µM. It also gave a GI50 [7] of 56.5 µM, a TGI [7] of over 100 µM and a GI50 [8] of 5.99 µM. It also gave a TGI [8] of 49.8 µM, a GI50 [9] of 15 µM and a TGI [9] of over 100 µM. It also gave a GI50 [10] of over 100 µM and a TGI [10] of over 100 µM.

Work on `COC1=C(C)C(=O)c2c(c(CCCl)c3n2CCC3OC(C)=O)C1=O` (centres undefined) yielded a GI50 [1] of 0.0632 µM, a TGI [1] of 0.166 µM and a GI50 [2] of 7.18 µM. For the same compound, the TGI [2] was 38.6 µM, the GI50 [3] was 0.165 µM and the TGI [3] was 0.913 µM. For the same compound, the GI50 [4] was 0.241 µM, the TGI [4] was 0.739 µM and the GI50 [5] was 0.204 µM. For the same compound, the TGI [5] was 0.927 µM, the GI50 [6] was 0.31 µM and the TGI [6] was 1.09 µM. It also gave a GI50 [7] of 0.272 µM, a TGI [7] of 18.2 µM and a GI50 [8] of 0.208 µM. The TGI [8] was 0.578 µM, the GI50 [9] was 0.273 µM and the TGI [9] was 13.4 µM. The GI50 [10] was 0.246 µM and the TGI [10] was 1.03 µM.

In the case of `Clc1cc(Cl)c(OCCCCCCN2CCNCC2)c(Cl)c1`, the GI50 [1] is reported as 9.35 µM, the TGI [1] is reported as 22.6 µM and the GI50 [2] is reported as 3.48 µM. The TGI [2] was 15.1 µM, the GI50 [3] was 10.6 µM and the TGI [3] was 25.3 µM. It also gave a GI50 [4] of 2 µM, a TGI [4] of 5.44 µM and a GI50 [5] of 1.75 µM. The TGI [5] was 3.26 µM, the GI50 [6] was 2.33 µM and the TGI [6] was 5.68 µM. For the same compound, the GI50 [7] was 3.87 µM, the TGI [7] was 16.3 µM and the GI50 [8] was 2.09 µM. The TGI [8] was 4.27 µM, the GI50 [9] was 2.3 µM and the TGI [9] was 6.09 µM. The GI50 [10] was 12.3 µM and the TGI [10] was 30.8 µM.

Compound `CC(=O)CC/C=C(\C)[C@H](O)[C@H](C)C(=O)O[C@H]1C[C@H](C)C=C2C=C[C@@]3(C)O[C@@H](O)CC(=O)[C@]3(C)[C@H]21` has a GI50 [1] of 2.55 µM, a TGI [1] of 7.95 µM and a GI50 [2] of 1.78 µM. It also gave a TGI [2] of 6.05 µM, a GI50 [3] of 1.24 µM and a TGI [3] of 9.17 µM. For the same compound, the GI50 [4] was 0.383 µM, the TGI [4] was 2.9 µM and the GI50 [5] was 0.279 µM. The TGI [5] was 1.69 µM, the GI50 [6] was 0.364 µM and the TGI [6] was 2.18 µM. For the same compound, the GI50 [7] was 0.331 µM, the TGI [7] was 2.49 µM and the GI50 [8] was 0.618 µM. The TGI [8] was 2.14 µM, the GI50 [9] was 0.384 µM and the TGI [9] was 2.8 µM. For the same compound, the GI50 [10] was 0.423 µM and the TGI [10] was 4.6 µM.

`Cc1ccc(C=C2C(Cl)=C(Cl)C(Cl)=C2Cl)cc1` was tested, and the GI50 [1] was 1.43 µM, the TGI [1] was 2.91 µM and the GI50 [2] was 1 µM. It also gave a TGI [2] of 2.75 µM, a GI50 [3] of 1.7 µM and a TGI [3] of 3.84 µM. For the same compound, the GI50 [4] was 0.757 µM, the TGI [4] was 2.18 µM and the GI50 [5] was 0.303 µM. For the same compound, the TGI [5] was 0.959 µM, the GI50 [6] was 1.25 µM and the TGI [6] was 2.64 µM. The GI50 [7] was 1.33 µM, the TGI [7] was 2.68 µM and the GI50 [8] was 0.784 µM. The TGI [8] was 2.74 µM, the GI50 [9] was 0.664 µM and the TGI [9] was 1.96 µM. For the same compound, the GI50 [10] was 1.49 µM and the TGI [10] was 3.22 µM.

`COC(=O)[C@]12CC[C@@H](C)[C@H](C)[C@@H]1C1=CC[C@@H]3[C@@]4(C)C[C@@H](OC(=O)/C=C/c5ccccc5)[C@H](O)[C@@](C)(CO)[C@@H]4[C@H](O)C[C@@]3(C)[C@]1(C)CC2` was tested, and the GI50 [1] was 1.07 µM, the TGI [1] was 4.83 µM and the GI50 [2] was 3.23 µM. It also gave a TGI [2] of 13.4 µM, a GI50 [3] of 3.11 µM and a TGI [3] of 12 µM. It also gave a GI50 [4] of 2.56 µM, a TGI [4] of 11.2 µM and a GI50 [5] of 1.69 µM. For the same compound, the TGI [5] was 3.1 µM, the GI50 [6] was 2.69 µM and the TGI [6] was 9.36 µM. It also gave a GI50 [7] of 3.51 µM, a TGI [7] of 16.6 µM and a GI50 [8] of 2.83 µM. The TGI [8] was 11.4 µM, the GI50 [9] was 1.86 µM and the TGI [9] was 4.18 µM. It also gave a GI50 [10] of 2.56 µM and a TGI [10] of 9.15 µM.
